Data set [1] deals with MDA-MB-231. Nature of the data set: Phototoxicity against human MDA-MB-231 cells assessed as inhibition of cell viability incubated with compound for 2 hrs followed by irradiation with 0.92 mW cm'-2 light and measured after overnight incubation by CellTiter Blue assay. Particulars: MDA-MB-231, light or radiation study; call rule not given here. Type of data set: functional, cell-based.
Data set [2] can be described thus: Drug uptake in human MCF7 cells at 1 uM incubated for 24 hrs by fluorescence imaging analysis. It is filed as ADME, cell-based. Particulars: mcf7, 24 h.
Data set [3] in a line: Time dependent drug uptake in human MDA-MB-231 cells at 10 uM incubated up to 24 hrs by spectrofluorometric analysis. It is filed as ADME, cell-based. Particulars: mda-mb-231, 24 h.
The nature of data set [4]: Drug uptake in athymic mouse xenografted with HNSCC cells at 0.1 mM administered iv measured up to 4 days post-drug administration by IVIS spectrum in vivo fluorescence imaging analysis. Type of data set: ADME, organism-based. The conditions noted are these: 96 h, 100 µM.
Data set [5] concerns MCF7. Nature of the data set: Dark cytotoxicity against human MCF7 cells assessed as inhibition of cell viability incubated for 24 hrs by CellTiter Blue assay. It is filed as cell-based. The conditions noted are these: MCF7, 24 h.
A short description of data set [6]: Time dependent drug uptake in human MCF7 cells at 10 uM incubated up to 24 hrs by spectrofluorometric analysis. Type of data set: ADME, cell-based. Particulars: mcf7, 24 h.
The subject of data set [7] is MDA-MB-231. Kind of data set: Dark cytotoxicity against human MDA-MB-231 cells assessed as inhibition of cell viability incubated for 24 hrs by CellTiter Blue assay. Particulars: MDA-MB-231, 24 h. It is filed as cell-based.
In data set [8] the test system is MCF7. Nature of the data set: Phototoxicity against human MCF7 cells assessed as inhibition of cell viability incubated with compound for 2 hrs followed by irradiation with 0.92 mW cm'-2 light and measured after overnight incubation by CellTiter Blue assay. It is filed as functional, cell-based. Particulars: MCF7, light or radiation study.
Data set [9] is described as follows: Drug uptake in human MDA-MB-231 cells at 1 uM incubated for 24 hrs by fluorescence imaging analysis. Type of data set: ADME, cell-based. The conditions noted are these: mda-mb-231, 24 h.

pIC50: −log10 of the molar value. Where only a bound is given, the exact number is not on record here.

As to `CN1CC2c3nc(c(-c4c(F)c(F)c(S[C@@H]5O[C@H](CO)[C@@H](O)[C@H](O)[C@H]5O)c(F)c4F)c4ccc([nH]4)c(-c4c(F)c(F)c(S[C@@H]5O[C@H](CO)[C@@H](O)[C@H](O)[C@H]5O)c(F)c4F)c4nc(c(-c5c(F)c(F)c(S[C@@H]6O[C@H](CO)[C@@H](O)[C@H](O)[C@H]6O)c(F)c5F)c5ccc([nH]5)c3-c3c(F)c(F)c(S[C@@H]5O[C@H](CO)[C@@H](O)[C@H](O)[C@H]5O)c(F)c3F)C=C4)C2C1` (some centres undefined), the negative logarithm of the IC50 (pIC50) is 5.70 to 6.00 in the data set on MDA-MB-231 [1], under 4.00 in the data set on MCF7 [5], under 4.00 in the data set on MDA-MB-231 [7] and 5.70 to 6.00 with MCF7 [8]. For the same compound, the Drug uptake entry in [2], in data set [3], in data set [4], in data set [6] and in data set [9] was “Active” in each case.

The values are drawn from ChEMBL document CHEMBL4616604, “Comparing a thioglycosylated chlorin and phthalocyanine as potential theranostic agents” (Bioorg Med Chem, 2020).
